Data reported in paper PMC5218480 (PLoS ONE, 2017).

Tested on: MV-4-11 cells
Test: Gene expression microarray analysis (Affymetrix PrimeView) and GSEA
Assay type: cell-based, human
Parameters: RFU PODN (11730768_x_at) / Fold change /veh PODN (11730768_x_at) / RFU LINC00158 (11744669_a_at) / Fold change /veh LINC00158 (11744669_a_at) / RFU DUSP10 (11751237_a_at) / Fold change /veh DUSP10 (11751237_a_at) / RFU ID3 (11757404_x_at) / Fold change /veh ID3 (11757404_x_at) / RFU PLEKHG5 (11737974_s_at) / Fold change /veh PLEKHG5 (11737974_s_at) / RFU LRRC4B (11730491_at) / Fold change /veh LRRC4B (11730491_at) / RFU GIMAP4 (11747438_a_at) / Fold change /veh GIMAP4 (11747438_a_at) / RFU KRT8 (11758183_x_at) / Fold change /veh KRT8 (11758183_x_at) / RFU CNN1 (11734310_a_at) / Fold change /veh CNN1 (11734310_a_at) / RFU VPS37D (11726825_at) / Fold change /veh VPS37D (11726825_at) / RFU C10orf10 (11716522_x_at) / Fold change /veh C10orf10 (11716522_x_at) / RFU KIR2DL2 /// KIR2DL4 /// KIR2DL5A /// KIR2DL5B /// KIR2DS1 /// KIR2DS2 /// KIR2DS3 /// KIR2DS4 /// KIR3DL3 /// KIR3DL3 /// KIR3DS1 (11738374_at) / Fold change /veh KIR2DL2 /// KIR2DL4 /// KIR2DL5A /// KIR2DL5B /// KIR2DS1 /// KIR2DS2 /// KIR2DS3 /// KIR2DS4 /// KIR3DL3 /// KIR3DL3 /// KIR3DS1 (11738374_at) / RFU C1QL1 (11718748_at) / Fold change /veh C1QL1 (11718748_at) / RFU TMPRSS4 (11747572_a_at) / Fold change /veh TMPRSS4 (11747572_a_at) / RFU HAMP (11756126_x_at) / Fold change /veh HAMP (11756126_x_at) / RFU RNFT2 (11725882_a_at) / Fold change /veh RNFT2 (11725882_a_at) / RFU NR4A2 (11747474_a_at) / Fold change /veh NR4A2 (11747474_a_at) / RFU ABCC12 (11746883_a_at) / Fold change /veh ABCC12 (11746883_a_at) / RFU TMEM136 (11760407_x_at) / Fold change /veh TMEM136 (11760407_x_at) / RFU CLDN22 /// WWC2 (11732394_at) / Fold change /veh CLDN22 /// WWC2 (11732394_at) / RFU HLA-DPB1 (11760878_x_at) / Fold change /veh HLA-DPB1 (11760878_x_at) / RFU SPINT1 (11716480_a_at) / Fold change /veh SPINT1 (11716480_a_at) / RFU GAP43 (11754022_s_at) / Fold change /veh GAP43 (11754022_s_at) / RFU A4GNT (11735810_at) / Fold change /veh A4GNT (11735810_at) / RFU PRB3 (11715151_x_at) / Fold change /veh PRB3 (11715151_x_at) / RFU TUBB4B (11761932_at) / Fold change /veh TUBB4B (11761932_at) / RFU CAPN14 (11732068_a_at) / Fold change /veh CAPN14 (11732068_a_at) / RFU TMCC2 (11721928_a_at) / Fold change /veh TMCC2 (11721928_a_at) / RFU IRGQ (11745062_a_at) / Fold change /veh IRGQ (11745062_a_at) / RFU FAM174B (11720279_a_at) / Fold change /veh FAM174B (11720279_a_at) / RFU TMPRSS4 (11748680_a_at) / Fold change /veh TMPRSS4 (11748680_a_at) / RFU FAM212B (11763350_a_at) / Fold change /veh FAM212B (11763350_a_at) / RFU PLEKHG5 (11743358_a_at) / Fold change /veh PLEKHG5 (11743358_a_at) / RFU ZSCAN30 (11745921_a_at) / Fold change /veh ZSCAN30 (11745921_a_at) / RFU CMKLR1 (11741424_a_at) / Fold change /veh CMKLR1 (11741424_a_at) / RFU LOC101060620 /// MAPK8IP1 (11723275_at) / Fold change /veh LOC101060620 /// MAPK8IP1 (11723275_at) / RFU SPTSSB (11747773_x_at) / Fold change /veh SPTSSB (11747773_x_at) / RFU PRSS12 (11739890_at) / Fold change /veh PRSS12 (11739890_at) / RFU BIN1 (11741810_x_at) / Fold change /veh BIN1 (11741810_x_at) / RFU WNT11 (11732464_a_at) / Fold change /veh WNT11 (11732464_a_at) / RFU C10orf10 (11716521_a_at) / Fold change /veh C10orf10 (11716521_a_at) / RFU C5orf56 (11738089_at) / Fold change /veh C5orf56 (11738089_at) / RFU CYB561 (11721691_x_at) / Fold change /veh CYB561 (11721691_x_at) / RFU ANKRD19P (11752326_a_at) / Fold change /veh ANKRD19P (11752326_a_at) / RFU OR2T12 /// OR2T33 /// OR2T8 (11738714_s_at) / Fold change /veh OR2T12 /// OR2T33 /// OR2T8 (11738714_s_at) / RFU VCAN (11748164_a_at) / Fold change /veh VCAN (11748164_a_at) / RFU JSRP1 (11732532_at) / Fold change /veh JSRP1 (11732532_at) / RFU KRTAP10-11 (11738290_x_at) / Fold change /veh KRTAP10-11 (11738290_x_at) / RFU MYO3A (11730013_a_at) / Fold change /veh MYO3A (11730013_a_at) / RFU EBF3 (11725865_a_at) / Fold change /veh EBF3 (11725865_a_at) / RFU CAMK2N1 (11719241_x_at) / Fold change /veh CAMK2N1 (11719241_x_at) / RFU C5orf56 (11738088_a_at) / Fold change /veh C5orf56 (11738088_a_at) / RFU OLFML3 (11715873_a_at) / Fold change /veh OLFML3 (11715873_a_at) / RFU LOC100653217 /// NTM (11731650_a_at) / Fold change /veh LOC100653217 /// NTM (11731650_a_at) / RFU MAPK11 (11762145_a_at) / Fold change /veh MAPK11 (11762145_a_at) / RFU FIZ1 (11724087_x_at) / Fold change /veh FIZ1 (11724087_x_at) / RFU OASL (11726364_x_at) / Fold change /veh OASL (11726364_x_at) / RFU SOX15 (11748057_x_at) / Fold change /veh SOX15 (11748057_x_at) / RFU CD79A (11719716_a_at) / Fold change /veh CD79A (11719716_a_at) / RFU HIST1H1D (11736915_at) / Fold change /veh HIST1H1D (11736915_at) / RFU CASKIN2 (11723855_a_at) / Fold change /veh CASKIN2 (11723855_a_at) / RFU LOC730098 (11760151_x_at) / Fold change /veh LOC730098 (11760151_x_at) / RFU OR4N2 (11742367_at) / Fold change /veh OR4N2 (11742367_at) / RFU PRRT2 (11749266_a_at) / Fold change /veh PRRT2 (11749266_a_at) / RFU SNX32 (11753110_a_at) / Fold change /veh SNX32 (11753110_a_at) / RFU CDHR5 (11726645_a_at) / Fold change /veh CDHR5 (11726645_a_at) / RFU RCAN1 (11760418_a_at) / Fold change /veh RCAN1 (11760418_a_at) / RFU FAM167A (11723789_a_at) / Fold change /veh FAM167A (11723789_a_at) / RFU FAM26E (11764081_at) / Fold change /veh FAM26E (11764081_at) / RFU ISYNA1 (11749810_s_at) / Fold change /veh ISYNA1 (11749810_s_at) / RFU ACY1 (11761880_at) / Fold change /veh ACY1 (11761880_at) / RFU 11764098_at / Fold change /veh 11764098_at / RFU SAMD14 (11745864_x_at) / Fold change /veh SAMD14 (11745864_x_at) / RFU NPB (11741838_a_at) / Fold change /veh NPB (11741838_a_at) / RFU TMPRSS6 (11731388_a_at) / Fold change /veh TMPRSS6 (11731388_a_at) / RFU KRTAP10-2 (11738614_at) / Fold change /veh KRTAP10-2 (11738614_at) / RFU ARHGAP8 /// PRR5-ARHGAP8 (11727945_x_at) / Fold change /veh ARHGAP8 /// PRR5-ARHGAP8 (11727945_x_at) / RFU KRTAP5-7 /// NADSYN1 (11734609_at) / Fold change /veh KRTAP5-7 /// NADSYN1 (11734609_at) / RFU RASL12 (11751679_a_at) / Fold change /veh RASL12 (11751679_a_at) / RFU CDKN2B (11736163_a_at) / Fold change /veh CDKN2B (11736163_a_at) / RFU PRF1 (11729649_at) / Fold change /veh PRF1 (11729649_at) / RFU, ZNF638 /// ZNF638-IT1 / Fold change vs veh, ZNF638 /// ZNF638-IT1 / RFU, PANK3 / Fold change vs veh, PANK3 / RFU, SH3YL1 / Fold change vs veh, SH3YL1 / RFU, ZEB2 / Fold change vs veh, ZEB2 / RFU, NRIP1 / Fold change vs veh, NRIP1 / RFU, PTTG1IP / Fold change vs veh, PTTG1IP / RFU, CAPN2 / Fold change vs veh, CAPN2 / RFU, MED14 / Fold change vs veh, MED14 / RFU, SNORA58 / Fold change vs veh, SNORA58 / RFU, C1orf63 / Fold change vs veh, C1orf63 / RFU, LRRFIP1 / Fold change vs veh, LRRFIP1 / RFU, NDUFAF7 / Fold change vs veh, NDUFAF7 / RFU, SLC12A2 / Fold change vs veh, SLC12A2 / RFU, IBTK / Fold change vs veh, IBTK / RFU, ESF1 / Fold change vs veh, ESF1 / Fold change vs veh, TMEM50B / RFU, TAOK1 / Fold change vs veh, TAOK1 / RFU, ACBD3 / Fold change vs veh, ACBD3 / RFU, TMA16 / Fold change vs veh, TMA16 / RFU, RWDD3 / Fold change vs veh, RWDD3 / RFU, BCAT1 / Fold change vs veh, BCAT1 / RFU, EDEM3 / Fold change vs veh, EDEM3 / RFU, TMEM33 / Fold change vs veh, TMEM33 / RFU, WDR75 / Fold change vs veh, WDR75 / RFU, AHCTF1 / Fold change vs veh, AHCTF1 / RFU, TFRC / Fold change vs veh, TFRC / RFU, ZDHHC17 / Fold change vs veh, ZDHHC17 / RFU, NOM1 / Fold change vs veh, NOM1 / RFU, ARL8B / Fold change vs veh, ARL8B / RFU, ZBTB11 / Fold change vs veh, ZBTB11 / RFU, TAMM41 / Fold change vs veh, TAMM41 / RFU, KIAA1704 /// LOC100996395 / Fold change vs veh, KIAA1704 /// LOC100996395 / RFU, ING1 / Fold change vs veh, ING1 / RFU, TRMT61B / Fold change vs veh, TRMT61B / RFU, FUBP3 / Fold change vs veh, FUBP3 / RFU, TP53 / Fold change vs veh, TP53 / RFU, TNKS2 / Fold change vs veh, TNKS2 / RFU, ZFP14 / Fold change vs veh, ZFP14 / RFU, ACTR2 / Fold change vs veh, ACTR2 / RFU, PPP3R1 / Fold change vs veh, PPP3R1 / RFU, PIK3R1 / Fold change vs veh, PIK3R1 / RFU, HNRNPA1 / Fold change vs veh, HNRNPA1 / RFU, RNF170 / Fold change vs veh, RNF170 / RFU, ZNF28 / Fold change vs veh, ZNF28 / RFU, RNGTT / Fold change vs veh, RNGTT / RFU, OGT / Fold change vs veh, OGT / RFU, BRD1 / Fold change vs veh, BRD1 / RFU, MARS / Fold change vs veh, MARS / RFU, ZNF655 / Fold change vs veh, ZNF655 / RFU, FAHD1 / Fold change vs veh, FAHD1 / RFU, BDP1 / Fold change vs veh, BDP1 / RFU, LRRCC1 / Fold change vs veh, LRRCC1 / RFU, ARID1A / Fold change vs veh, ARID1A / RFU, ZNF146 / Fold change vs veh, ZNF146 / RFU, ZNF330 / Fold change vs veh, ZNF330 / RFU, GPN3 / Fold change vs veh, GPN3 / RFU, C9orf123 / Fold change vs veh, C9orf123 / RFU, N4BP2L2 / Fold change vs veh, N4BP2L2 / RFU, ARFIP1 / Fold change vs veh, ARFIP1 / RFU, FAM179B / Fold change vs veh, FAM179B / RFU, BCL10 / Fold change vs veh, BCL10 / RFU, UHRF1BP1L / Fold change vs veh, UHRF1BP1L / RFU, BET1 / Fold change vs veh, BET1 / RFU, CNOT2 / Fold change vs veh, CNOT2 / RFU, ZNF268 / Fold change vs veh, ZNF268 / Fold change vs veh, ZNF507 / RFU, DGCR2 / Fold change vs veh, DGCR2 / RFU, WDSUB1 / Fold change vs veh, WDSUB1 / Fold change vs veh, HSP90B1 /// MIR3652 / RFU, ADSS / Fold change vs veh, ADSS / RFU, GK / Fold change vs veh, GK / RFU, ZNF148 / Fold change vs veh, ZNF148 / RFU, TAF9 / Fold change vs veh, TAF9 / RFU, SLC1A5 / Fold change vs veh, SLC1A5 / RFU, SLMO2 / Fold change vs veh, SLMO2 / RFU, ABCC4 / Fold change vs veh, ABCC4 / RFU, LOC101060439 /// RAP1B / Fold change vs veh, LOC101060439 /// RAP1B / RFU, RFX7 / Fold change vs veh, RFX7 / RFU, GTPBP10 / Fold change vs veh, GTPBP10 / RFU, CNEP1R1 / Fold change vs veh, CNEP1R1 / RFU, BIVM-ERCC5 /// ERCC5 / Fold change vs veh, BIVM-ERCC5 /// ERCC5 / RFU, ILF3 / Fold change vs veh, ILF3 / RFU 11762660_at / Fold change /veh 11762660_at / RFU VCAN (11757783_s_at) / Fold change /veh VCAN (11757783_s_at) / RFU DDX43 (11728927_at) / Fold change /veh DDX43 (11728927_at) / RFU KRT8 (11758188_x_at) / Fold change /veh KRT8 (11758188_x_at) / RFU NKD1 (11759106_at) / Fold change /veh NKD1 (11759106_at) / RFU SRD5A1 (11742802_a_at) / Fold change /veh SRD5A1 (11742802_a_at) / RFU TPSAB1 /// TPSB2 (11721975_s_at) / Fold change /veh TPSAB1 /// TPSB2 (11721975_s_at) / RFU GSTM3 (11746129_a_at) / Fold change /veh GSTM3 (11746129_a_at) / RFU IL23R (11737362_x_at) / Fold change /veh IL23R (11737362_x_at) / RFU TMEM51 (11727254_a_at) / Fold change /veh TMEM51 (11727254_a_at) / RFU PIWIL2 (11732686_x_at) / Fold change /veh PIWIL2 (11732686_x_at) / RFU ORM1 (11744905_x_at) / Fold change /veh ORM1 (11744905_x_at) / RFU CCDC152 (11743942_at) / Fold change /veh CCDC152 (11743942_at) / RFU ECM1 (11717891_a_at) / Fold change /veh ECM1 (11717891_a_at) / RFU IL23R (11748794_a_at) / Fold change /veh IL23R (11748794_a_at) / RFU TNFAIP8L3 (11732012_x_at) / Fold change /veh TNFAIP8L3 (11732012_x_at) / RFU MBOAT4 (11741988_at) / Fold change /veh MBOAT4 (11741988_at) / RFU 11764193_at / Fold change /veh 11764193_at / RFU TMEM53 (11763286_at) / Fold change /veh TMEM53 (11763286_at) / RFU MAGEB2 (11727129_at) / Fold change /veh MAGEB2 (11727129_at) / RFU TMEM200A (11744735_a_at) / Fold change /veh TMEM200A (11744735_a_at) / RFU CCDC152 (11751479_a_at) / Fold change /veh CCDC152 (11751479_a_at) / RFU FAM211A (11726209_a_at) / Fold change /veh FAM211A (11726209_a_at) / RFU RGS16 (11746705_a_at) / Fold change /veh RGS16 (11746705_a_at) / RFU VCAN (11755009_s_at) / Fold change /veh VCAN (11755009_s_at) / RFU RHOB (11743442_s_at) / Fold change /veh RHOB (11743442_s_at) / RFU RGS16 (11720943_a_at) / Fold change /veh RGS16 (11720943_a_at) / RFU RGS16 (11720944_at) / Fold change /veh RGS16 (11720944_at) / RFU, VPS4B / Fold change vs veh, VPS4B / RFU, CREB1 / Fold change vs veh, CREB1 / RFU, DNAJC13 / Fold change vs veh, DNAJC13 / RFU, GNAQ / Fold change vs veh, GNAQ / RFU, CDK5R1 / Fold change vs veh, CDK5R1 / RFU, ZRANB3 / Fold change vs veh, ZRANB3 / RFU, CUL4A / Fold change vs veh, CUL4A / RFU, CCNY / Fold change vs veh, CCNY / RFU, UFL1 / Fold change vs veh, UFL1 / RFU, COG3 / Fold change vs veh, COG3 / RFU, DIAPH2 / Fold change vs veh, DIAPH2 / RFU, SKA2 / Fold change vs veh, SKA2 / RFU, AFF3 / Fold change vs veh, AFF3 / RFU, LMF1 / Fold change vs veh, LMF1 / RFU, IPO11 / Fold change vs veh, IPO11 / RFU, DFFB / Fold change vs veh, DFFB / RFU, FOXP1 / Fold change vs veh, FOXP1 / RFU, CARD8 / Fold change vs veh, CARD8 / RFU, STRN3 / Fold change vs veh, STRN3 / RFU, ADK / Fold change vs veh, ADK / RFU, RASSF2 / Fold change vs veh, RASSF2 / RFU, WIPF1 / Fold change vs veh, WIPF1 / RFU, LARP1B / Fold change vs veh, LARP1B / RFU, RASA1 / Fold change vs veh, RASA1 / RFU, RB1 / Fold change vs veh, RB1 / RFU, PPFIA1 / Fold change vs veh, PPFIA1 / RFU, MAT2A / Fold change vs veh, MAT2A / RFU, CCT5 / Fold change vs veh, CCT5 / RFU, WDR92 / Fold change vs veh, WDR92 / RFU, CUX1 / Fold change vs veh, CUX1 / RFU, TTC7A / Fold change vs veh, TTC7A / RFU, TMEM135 / Fold change vs veh, TMEM135 / RFU, DEPTOR / Fold change vs veh, DEPTOR / RFU, CPM / Fold change vs veh, CPM / RFU, DNAJB6 / Fold change vs veh, DNAJB6 / RFU, CACNA2D3 / Fold change vs veh, CACNA2D3 / RFU, DTX4 / Fold change vs veh, DTX4 / RFU, TFCP2 / Fold change vs veh, TFCP2 / RFU, GMCL1 /// GMCL1P1 / Fold change vs veh, GMCL1 /// GMCL1P1 / RFU, AEBP2 / Fold change vs veh, AEBP2 / RFU, SNHG1 /// SNORD22 /// SNORD25 /// SNORD26 /// SNORD27 /// SNORD28 /// SNORD29 /// SNORD31 / Fold change vs veh, SNHG1 /// SNORD22 /// SNORD25 /// SNORD26 /// SNORD27 /// SNORD28 /// SNORD29 /// SNORD31 / Fold change (Aza/veh), C12orf56 (ProbeSet 11735607_a_at) / Fold change (ACY-1035/veh), C12orf56 (ProbeSet 11735607_a_at) / Fold change (Aza/veh), FGFR1OP (ProbeSet 11751329_s_at) / Fold change (ACY-1035/veh), FGFR1OP (ProbeSet 11751329_s_at) / Fold change (Aza/veh), VPS36 (ProbeSet 11739960_a_at) / Fold change (ACY-1035/veh), VPS36 (ProbeSet 11739960_a_at) / RFU SYPL1 (11715823_x_at) / Fold change /veh SYPL1 (11715823_x_at) / RFU IGFBP7 (11715501_s_at) / Fold change /veh IGFBP7 (11715501_s_at) / RFU REEP3 (11722064_at) / Fold change /veh REEP3 (11722064_at) / RFU IGLL1 (11728026_x_at) / Fold change /veh IGLL1 (11728026_x_at): dose or concentration left out as unconfirmed
Conditions: MV-4-11 cells, 48 hours

Nc1ccc(-c2cccs2)cc1NC(=O)c1ccc2c(c1)cc(C1CC1)n2CCN1CCOCC1 [ACY-1035]
RFU IL23R (11748794_a_at): 5.77 RFU
